The target of this experiment is T1, hmGluR4 (Homo sapiens, UniProt Q14833).
T1 construct: host or cells: HEK293T
As to the kind of experiment: HEK-293 mGluR4 cells cAMP assay with EC20 L-Glutamate (HTRF). The settings on record: positive allosteric activity at EC20 L-Glutamate, 10 μM Forskolin, HEK293T mGluR4 cells, cAMP HTRF; read-out: hrmGluR4/HEK293T-hmGluR4 (EC50). It counts as cell-based. Summed up: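 PAM mode in mGluR4 HEK293T suspension cells, glutamine-starved overnight; 10 μM forskolin (final) with EC20 L-glutamate (2.3 μM), 2000 cells/well, 30 min at 37 °C. cAMP measured by two-step HTRF after 60 min at room temperature. Basal control EC20 glutamate; EC100 400 μM glutamate (2×).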
(Cyclic AMP is a second messenger, typically raised through Gs and lowered through Gi signalling.)

The structures appear in SMILES notation.

T1 sequence (Q14833 33-912): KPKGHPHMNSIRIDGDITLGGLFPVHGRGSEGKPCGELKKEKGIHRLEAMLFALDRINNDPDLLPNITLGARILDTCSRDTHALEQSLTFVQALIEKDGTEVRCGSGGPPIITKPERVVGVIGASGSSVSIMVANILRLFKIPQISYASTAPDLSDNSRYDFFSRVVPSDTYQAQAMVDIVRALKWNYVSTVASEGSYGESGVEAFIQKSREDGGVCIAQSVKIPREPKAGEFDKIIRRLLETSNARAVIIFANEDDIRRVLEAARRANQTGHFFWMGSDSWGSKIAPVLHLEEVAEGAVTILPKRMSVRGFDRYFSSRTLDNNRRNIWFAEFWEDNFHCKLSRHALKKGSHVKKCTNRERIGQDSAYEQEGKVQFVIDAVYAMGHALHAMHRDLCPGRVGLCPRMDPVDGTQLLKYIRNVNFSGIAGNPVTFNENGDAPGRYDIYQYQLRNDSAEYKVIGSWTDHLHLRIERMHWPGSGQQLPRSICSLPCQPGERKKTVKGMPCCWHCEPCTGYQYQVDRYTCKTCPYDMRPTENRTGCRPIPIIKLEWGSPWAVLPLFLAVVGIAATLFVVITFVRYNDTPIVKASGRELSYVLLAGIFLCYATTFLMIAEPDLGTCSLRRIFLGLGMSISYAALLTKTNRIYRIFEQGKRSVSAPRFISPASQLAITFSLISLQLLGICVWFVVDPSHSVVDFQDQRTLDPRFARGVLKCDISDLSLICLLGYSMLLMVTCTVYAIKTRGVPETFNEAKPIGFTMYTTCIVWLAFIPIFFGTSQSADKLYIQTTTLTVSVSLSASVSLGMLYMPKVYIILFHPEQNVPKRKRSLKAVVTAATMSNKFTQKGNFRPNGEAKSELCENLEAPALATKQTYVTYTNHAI

In the case of `COc1ccc(N2C(=O)c3ccccc3NC23CCN(Cc2ccccc2C#N)CC3)cc1` [Compound 116, 2-((3′-(4-Methoxyphenyl)-4′-oxo-3′,4′-dihydro-1′H-spiro[piperidine-4,2′-quinazolin]-1-yl)methyl)benzonitrile], the EC50 was 1000 to 10000 nM. As for `CN(C)Cc1ccc(-c2ccc3c(c2)NC2(CCN(Cc4ccc(F)c(F)c4)CC2)N(c2ccc(OC(F)(F)F)cc2)C3=O)o1` [Compound 74, 1-(3,4-Difluorobenzyl)-7′-(5-((dimethylamino)methyl)furan-2-yl)-3′-(4-(trifluoromethoxy)phenyl)-1′H-spiro[piperidine-4,2′-quinazolin]-4′(3′H)-one], the EC50 was 1000 to 10000 nM. With `COc1ccc(N2C(=O)c3ccccc3NC23CCN(Cc2ccccc2Cl)CC3)cc1` [Compound 111, 1-(2-Chlorobenzyl)-3′-(4-methoxyphenyl)-1′H-spiro[piperidine-4,2′-quinazolin]-4′(3′H)-one] the figure was 1000 to 10000 nM; with `COc1ccc(N2C(=O)c3ccc(OC)cc3NC23CCN(Cc2ccc(Cl)s2)CC3)cc1` [Compound 59, 1-((5-Chlorothiophen-2-yl)methyl)-7′-methoxy-3′-(4-methoxyphenyl)-1′H-spiro[piperidine-4,2′-quinazolin]-4′(3′H)-one], below 1000 nM. `COc1ccc(N2C(=O)c3ccccc3NC23CCN(Cc2cccc(OC(F)(F)F)c2)CC3)cc1` [Compound 55, 3′-(4-Methoxyphenyl)-1-(3-(trifluoromethoxy)benzyl)-1′H-spiro[piperidine-4,2′-quinazolin]-4′(3′H)-one]: the EC50 was below 1000 nM. The figure for `COc1ccc(N2C(=O)c3ccc(OC)cc3NC23CCN(Cc2cccc(F)c2)CC3)cc1` [Compound 68, 1-(3-Fluorobenzyl)-7′-methoxy-3′-(4-methoxyphenyl)-1′H-spiro[piperidine-4,2′-quinazolin]-4′(3′H)-one] is 1000 to 10000 nM. The figure for `COc1ccc(N2C(=O)c3ccccc3NC23CN(Cc2ccc(C)cc2)C3)cc1` [Compound 72, 3′-(4-Methoxyphenyl)-1-(4-methylbenzyl)-1′H-spiro[azetidine-3,2′-quinazolin]-4′(3′H)-one] is 1000 to 10000 nM; for `COCCOc1ccc(N2C(=O)c3ccc(Br)cc3NC23CCN(Cc2ccc(F)c(F)c2)CC3)cc1` [Compound 37, 7′-bromo-1-(3,4-difluorobenzyl)-3′-(4-(2-methoxyethoxyl)phenyl)-1′H-spiro[piperidine-4,2′-quinazolin]-4′(3′H)-one] it is below 1000 nM; for `COc1ccc(N2C(=O)c3ccccc3NC23CN(Cc2cccc4ccccc24)C3)cc1` [Compound 86, 3′-(4-Methoxyphenyl)-1-(naphthalen-1-ylmethyl)-1′H-spiro[azetidine-3,2′-quinazolin]-4′(3′H)-one] it is 1000 to 10000 nM. For the compound `COC(=O)c1ccc2c(c1)NC1(CN(Cc3ccccc3)C1)N(c1ccc(OC)cc1)C2=O` [Compound 35, Methyl 1-benzyl-3′-(4-methoxyphenyl)-4′-oxo-3′,4′-dihydro-1′H-spiro[azetidine-3,2′-quinazoline]-7′-carboxylate], the EC50 was below 1000 nM. The figure for `COc1ccc(N2C(=O)c3ccccc3NC23CCC(NC(=O)OC(C)(C)C)CC3)cc1` (stereo not drawn) [Compound 88, tert-Butyl (3′-(4-methoxyphenyl)-4′-oxo-3′,4′-dihydro-1′H-spiro[cyclohexane-1,2′-quinazolin]-4-yl)carbamate] is 1000 to 10000 nM; for `COc1ccc(N2C(=O)c3ccccc3NC23CN(Cc2c(F)cc(F)cc2F)C3)cc1` [Compound 119, 3′-(4-Methoxyphenyl)-1-(2,4,6-trifluorobenzyl)-1′H-spiro[azetidine-3,2′-quinazolin]-4′(3′H)-one] it is 1000 to 10000 nM.

For the compound `COCCOc1ccc(N2C(=O)c3ccc(F)cc3NC23CN(Cc2ccc(Cl)cc2)C3)cc1` [Compound 123, 1-(4-Chlorobenzyl)-7′-fluoro-3′-(4-(2-methoxyethoxyl)phenyl)-1′H-spiro[azetidine-3,2′-quinazolin]-4′(3′H)-one], the EC50 was 1000 to 10000 nM. For the compound `COc1ccc(N2C(=O)c3ccc(F)cc3NC23CCN(Cc2ccc(F)c(F)c2)CC3)cc1` [Compound 23, 1-(3,4-Difluorobenzyl)-7′-fluoro-3′-(4-methoxyphenyl)-1′H-spiro[piperidine-4,2′-quinazolin]-4′(3′H)-one], the EC50 is below 1000 nM. The figure for `O=C1c2ccc(F)cc2NC2(CN(Cc3ccccc3Cl)C2)N1c1ccc(OC(F)(F)F)cc1` [Compound 70, 1-(2-Chlorobenzyl)-7′-fluoro-3′-(4-(trifluoromethoxy)phenyl)-1′H-spiro[azetidine-3,2′-quinazolin]-4′(3′H)-one] is 1000 to 10000 nM; for `O=C1c2ccc(Br)cc2NC2(CCN(Cc3cccc4ncccc34)CC2)N1c1ccc(OC(F)(F)F)cc1` [Compound 57, 7′-Bromo-1-(quinolin-5-ylmethyl)-3′-(4-(trifluoromethoxy)phenyl)-1′H-spiro[piperidine-4,2′-quinazolin]-4′(3′H)-one] it is below 1000 nM. With `COc1ccc(N2C(=O)c3ccccc3NC23CN(Cc2ccccc2Cl)C3)cc1` [Compound 50, 1-(2-Chlorobenzyl)-3′-(4-methoxyphenyl)-1′H-spiro[azetidine-3,2′-quinazolin]-4′(3′H)-one] the figure was below 1000 nM; with `CCOC(=O)c1ccc2c(c1)NC1(CN(Cc3ccccc3Cl)C1)N(c1ccc(OC(F)(F)F)cc1)C2=O` [Compound 18, Ethyl 1-(2-chlorobenzyl)-4′-oxo-3′-(4-(trifluoromethoxy)phenyl)-3′,4′-dihydro-1′H-spiro[azetidine-3,2′-quinazoline]-7′-carboxylate], below 1000 nM; with `COc1ccc(N2C(=O)c3ccc(-c4nccs4)cc3NC23CCN(Cc2ccc(F)c(F)c2)CC3)cc1` [Compound 14, 1-(3,4-Difluorobenzyl)-3′-(4-methoxyphenyl)-7′-(thiazol-2-yl)-1′H-spiro[piperidine-4,2′-quinazolin]-4′(3′H)-one], below 1000 nM. The figure for `COC(=O)c1ccc2c(c1)NC1(CCN(Cc3ccc(F)c(F)c3)CC1)N(c1ccc(OC)cc1)C2=O` [Compound 4, Methyl 1-(3,4-difluorobenzyl)-3′-(4-methoxyphenyl)-4′-oxo-3′,4′-dihydro-1′H-spiro[piperidine-4,2′-quinazoline]-7′-carboxylate] is below 1000 nM; for `CCC(c1ccc(F)c(F)c1)N1CCC2(CC1)Nc1cc(Br)ccc1C(=O)N2c1ccc(Cl)cc1` (stereo not drawn) [Compound 33, 7′-Bromo-3′-(4-chlorophenyl)-1-(1-(3,4-difluorophenyl)propyl)-1′H-spiro[piperidine-4,2′-quinazolin]-4′(3′H)-one] it is below 1000 nM; for `COc1ccc(N2C(=O)c3ccc(-c4cccnc4)cc3NC23CCN(Cc2ccc(F)c(F)c2)CC3)cc1` [Compound 40, 1-(3,4-Difluorobenzyl)-3′-(4-methoxyphenyl)-7′-(pyridin-3-yl)-1′H-spiro[piperidine-4,2′-quinazolin]-4′(3′H)-one] it is below 1000 nM.

Take `CCc1ccc(CN2CC3(C2)Nc2ccccc2C(=O)N3c2ccc(OC)cc2)cc1` [Compound 112, 1-(4-Ethylbenzyl)-3′-(4-methoxyphenyl)-1′H-spiro[azetidine-3,2′-quinazolin]-4′(3′H)-one]: the EC50 was 1000 to 10000 nM. Take `COc1ccc(N2C(=O)c3ccc(C)cc3NC23CCN(Cc2ccc(F)c(F)c2)CC3)cc1` [Compound 60]: the EC50 is below 1000 nM.

(Values after US9708321B2, “Spiro-quinazolinone derivatives and their use as positive allosteric modulators of mGluR4” (Merck Patent GmbH, priority 2013, dated 2017).)
